Data on 14 compounds can be found in US20220071933A1, “COMBINATION REMEDY” (SYMRISE AG, priority 2019, published 2022).

Assay [1] deals with neurons. The note with it: concentration range 0.01 μM to 10 μM (0.003 mg/kg to 3 mg/kg); cited from earlier work.
Assay [2] concerns dopamine release. The note with it: about 0.03 mg/kg (equivalent to 0.1 μM); cited from earlier work.
The conditions of assay [3]: sensory; cited from earlier work.
In assay [4] the test system is HGT-1 parietal cell model. The experiment in a line: Proton secretion assay (intracellular proton index, IPX) in the HGT-1 parietal cell model. The assay is classed as cell-based. The note with it: for acid modulating effect (indicator of satiety): among the amino acids listed in Table 1; for IPX [induced by 50 mM AA] D: D stereoisomer; for IPX [induced by 50 mM AA] D / IPX [induced by 50 mM AA] L: 50 mM amino acid, HGT-1 cells, IPX based on log 2 data of intracellular proton concentration, lower IPX = more protons secreted; for IPX [induced by 50 mM AA] L: L stereoisomer. From the text:
The value of intracellular proton secretion (IPX) in the parietal cell model HGT-1 (proton secretion assay), which is a marker for gastric secretion, indicates the extent to which the amino acid is able to inhibit proton secretion and is thus indirectly a measure of saturation. The intracellular proton index (IPX) is based on log 2 data of intracellular proton concentration. The lower the IPX, the more protons are secreted. A low IPX is interpreted as stimulation of gastric acid, which in turn is a saturation signal.

Turning to `CCCCCCCCC(=O)NCc1ccc(O)c(OC)c1` [N-nonanoylvanillylamine, N-((4-hydroxy-3-methoxyphenyl-)methyl-)nonanamide], the “stimulation of serotonin release in neurons against the respective control” value in assay [1] is given as “up to 270%”. In assay [2], the “stimulation of dopamine release after acetylcholine stimulation against the respective control” value is recorded as “up to 700%”. Moreover, in assay [3], the detection threshold is 0.107 mg/kg and the irritation threshold is 0.054 mg/kg.

Consider `N=C(N)NCCC[C@@H](N)C(=O)O` [D-arginine], for which the “acid modulating effect (indicator of satiety)” value in assay [4] is reported as “best acid modulating effect”.

For `CC(C)C(N)C(=O)O` (stereo not drawn) [VAL], in assay [4], the “IPX [induced by 50 mM AA] D” value was −0.44 ± 0.17 and the “IPX [induced by 50 mM AA] L” value is 0.99 ± 0.05.

Regarding `NC(Cc1ccccc1)C(=O)O` (stereo not drawn) [PHE], in assay [4], the “IPX [induced by 50 mM AA] D” value is reported as 1.58 ± 0.10 and the “IPX [induced by 50 mM AA] L” value came to 0.50 ± 0.05. The like results for `NC(Cc1c[nH]c2ccccc12)C(=O)O` (stereo not drawn) [TRP] were, in that order, −0.04 ± 0.04 and −0.66 ± 0.23.

Take `CC(N)C(=O)O` (stereo not drawn) [ALA]: in assay [4], the “IPX [induced by 50 mM AA] D” value is listed as −0.35 ± 0.08 and the “IPX [induced by 50 mM AA] L” value was found to be 0.87 ± 0.10. Take `CC(C)CC(N)C(=O)O` (stereo not drawn) [LEU]: in assay [4], the “IPX [induced by 50 mM AA] D” value was 1.10 ± 0.13 and the “IPX [induced by 50 mM AA] L” value turned out to be 1.38 ± 0.14. The like results for `CC(O)C(N)C(=O)O` (stereo not drawn) [THR] were, in that order, 1.57 ± 0.05 and 1.43 ± 0.10. As for `NC(CO)C(=O)O` (stereo not drawn) [SER], in assay [4], the “IPX [induced by 50 mM AA] D” value was 0.87 ± 0.10 and the “IPX [induced by 50 mM AA] L” value is recorded as 1.40 ± 0.12. The corresponding values for `CCC(C)C(N)C(=O)O` (stereo not drawn) [ILE] are −0.40 ± 0.04 and 0.58 ± 0.07. As for `N=C(N)NCCC[C@H](N)C(=O)O` [L-arginine], the “acid modulating effect (indicator of satiety)” value in assay [4] is listed as “best acid modulating effect”. For `N=C(N)NCCC[C@H](N)C(=O)O` [ARG, arginine], in assay [4], the “IPX [induced by 50 mM AA] D” value is recorded as −2.37 ± 0.05 and the “IPX [induced by 50 mM AA] L” value was −2.71 ± 0.11. The corresponding values for `O=C(O)C1CCCN1` (stereo not drawn) [PRO] are 0.63 ± 0.09 and 0.44 ± 0.08. In the case of `CCCCC/C=C/C=C/C(=O)NCC(C)C` [pellitorin, Pellitorin], the detection threshold in assay [3] is recorded as 0.1 mg/kg.
